Data taken from ChEMBL document CHEMBL1201862, “PubChem BioAssay data set” (2004).
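1) Cells in 96-well plates. 2) Compound, 48 h, 5 concentrations. 3) Linear interpolation between surrounding doses. 4) Unreached endpoint = highest concentration. GI50 = concentration required for 50% inhibition of growth.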 Activity calls are given as the source filed them. No stated cut-off is given here; in the data, active = GI50 up to about 1.1 µM and inactive = higher.

Key:
Assay in all cases: NCI-60 cell line screen, 48 h
HT-29 = tested on: HT-29
SK-MEL-28 = tested on: SK-MEL-28
SF-295 = tested on: SF-295
Malme-3M = tested on: Malme-3M
NCI-H23 = tested on: NCI-H23
HCT-116 = tested on: HCT-116
OVCAR-8 = tested on: OVCAR-8
DLD-1 = tested on: DLD-1
SR = tested on: SR
UACC-257 = tested on: UACC-257
HOP-62 = tested on: HOP-62
MOLT-4 = tested on: MOLT-4
K562 = tested on: K562
OVCAR-5 = tested on: OVCAR-5
SK-OV-3 = tested on: SK-OV-3
RPMI-8226 = tested on: RPMI-8226
NCI-H460 = tested on: NCI-H460
LXFL 529 = tested on: LXFL 529
XF498 = tested on: XF498
IGROV-1 = tested on: IGROV-1
NCI-H226 = tested on: NCI-H226
HCT-15 = tested on: HCT-15
SN12C = tested on: SN12C
EKVX = tested on: EKVX
KM-20L2 = tested on: KM-20L2
SNB-19 = tested on: SNB-19
COLO 205 = tested on: COLO 205
M14 = tested on: M14
KM12 = tested on: KM12
SNB-78 = tested on: SNB-78
DMS-273 = tested on: DMS-273
SF-539 = tested on: SF-539
HOP-18 = tested on: HOP-18
RXF 393 = tested on: RXF 393
SK-MEL-5 = tested on: SK-MEL-5
OVCAR-4 = tested on: OVCAR-4
HL-60 = tested on: HL-60
OVCAR-3 = tested on: OVCAR-3
HCC 2998 = tested on: HCC 2998
M19-MEL = tested on: M19-MEL
A549 = tested on: A549
TK-10 = tested on: TK-10
SW-620 = tested on: SW-620
U-251 = tested on: U-251
CCRF-CEM = tested on: CCRF-CEM
UACC-62 = tested on: UACC-62
A498 = tested on: A498
SNB-75 = tested on: SNB-75
UO-31 = tested on: UO-31
ACHN = tested on: ACHN
LOX IMVI = tested on: LOX IMVI
786-0 = tested on: 786-0
DMS-114 = tested on: DMS-114
NCI-H522 = tested on: NCI-H522
SK-MEL-2 = tested on: SK-MEL-2
SF-268 = tested on: SF-268
CAKI-1 = tested on: CAKI-1

## CC(=O)O[C@]1(C)OC(=O)[C@@H](CC(C)C)N1[N+](=O)[O-]
HT-29
  GI50: > 100 µM (inactive)
SK-MEL-28
  GI50: > 100 µM (inactive)
SF-295
  GI50: > 100 µM (inactive)
Malme-3M
  GI50: > 100 µM (inactive)
NCI-H23
  GI50: > 100 µM (inactive)
HCT-116
  GI50: > 100 µM (inactive)
OVCAR-8
  GI50: > 100 µM (inactive)
DLD-1
  GI50: > 100 µM (inactive)
SR
  GI50: > 100 µM (inactive)
UACC-257
  GI50: > 100 µM (inactive)
HOP-62
  GI50: > 100 µM (inactive)
MOLT-4
  GI50: > 100 µM (inactive)
K562
  GI50: > 100 µM (inactive)
OVCAR-5
  GI50: > 100 µM (inactive)
SK-OV-3
  GI50: > 100 µM (inactive)
RPMI-8226
  GI50: > 100 µM (inactive)
NCI-H460
  GI50: > 100 µM (inactive)
LXFL 529
  GI50: > 100 µM (inactive)
XF498
  GI50: < 0.01 µM (active)
IGROV-1
  GI50: > 100 µM (inactive)
NCI-H226
  GI50: > 100 µM (inactive)
HCT-15
  GI50: > 100 µM
SN12C
  GI50: > 100 µM (inactive)
EKVX
  GI50: > 100 µM (inactive)
KM-20L2
  GI50: > 100 µM (inactive)
SNB-19
  GI50: > 100 µM (inactive)
COLO 205
  GI50: > 100 µM (inactive)
M14
  GI50: > 100 µM (inactive)
KM12
  GI50: > 100 µM (inactive)
SNB-78
  GI50: > 100 µM (inactive)
DMS-273
  GI50: > 100 µM (inactive)
SF-539
  GI50: > 100 µM (inactive)
HOP-18
  GI50: > 100 µM (inactive)
RXF 393
  GI50: 60.7 µM (inactive)
SK-MEL-5
  GI50: > 100 µM (inactive)
OVCAR-4
  GI50: > 100 µM (inactive)
HL-60
  GI50: > 100 µM (inactive)
OVCAR-3
  GI50: > 100 µM (inactive)
HCC 2998
  GI50: > 100 µM (inactive)
M19-MEL
  GI50: > 100 µM (inactive)
A549
  GI50: > 100 µM (inactive)
TK-10
  GI50: > 100 µM (inactive)
SW-620
  GI50: > 100 µM (inactive)
U-251
  GI50: > 100 µM (inactive)
CCRF-CEM
  GI50: > 100 µM (inactive)
UACC-62
  GI50: > 100 µM (inactive)
A498
  GI50: > 100 µM (inactive)
SNB-75
  GI50: > 100 µM (inactive)
UO-31
  GI50: > 100 µM (inactive)
ACHN
  GI50: > 100 µM (inactive)
LOX IMVI
  GI50: > 100 µM (inactive)
786-0
  GI50: > 100 µM (inactive)
DMS-114
  GI50: > 100 µM (inactive)
NCI-H522
  GI50: > 100 µM (inactive)
SK-MEL-2
  GI50: > 100 µM (inactive)

## NC1CCCCC1.O=C(O)C1(P(=O)(O)O)CC1
SK-MEL-28
  GI50: > 100 µM (inactive)
SF-295
  GI50: > 100 µM (inactive)
Malme-3M
  GI50: > 100 µM (inactive)
NCI-H23
  GI50: > 100 µM (inactive)
HCT-116
  GI50: > 100 µM (inactive)
OVCAR-8
  GI50: > 100 µM (inactive)
DLD-1
  GI50: > 100 µM (inactive)
UACC-257
  GI50: > 100 µM (inactive)
HOP-62
  GI50: > 100 µM (inactive)
MOLT-4
  GI50: > 100 µM (inactive)
K562
  GI50: > 100 µM (inactive)
SK-OV-3
  GI50: > 100 µM (inactive)
RPMI-8226
  GI50: > 100 µM (inactive)
NCI-H460
  GI50: > 100 µM (inactive)
LXFL 529
  GI50: > 100 µM (inactive)
XF498
  GI50: > 100 µM (inactive)
IGROV-1
  GI50: > 100 µM (inactive)
HCT-15
  GI50: > 100 µM
SN12C
  GI50: > 100 µM (inactive)
EKVX
  GI50: > 100 µM (inactive)
KM-20L2
  GI50: > 100 µM (inactive)
SNB-19
  GI50: > 100 µM (inactive)
COLO 205
  GI50: > 100 µM (inactive)
M14
  GI50: 25.5 µM (inactive)
KM12
  GI50: > 100 µM (inactive)
SNB-78
  GI50: > 100 µM (inactive)
DMS-273
  GI50: > 100 µM (inactive)
SF-539
  GI50: > 100 µM (inactive)
HOP-18
  GI50: > 100 µM (inactive)
RXF 393
  GI50: > 100 µM (inactive)
SK-MEL-5
  GI50: > 100 µM (inactive)
OVCAR-4
  GI50: > 100 µM (inactive)
HL-60
  GI50: > 100 µM (inactive)
OVCAR-3
  GI50: > 100 µM (inactive)
HCC 2998
  GI50: > 100 µM (inactive)
M19-MEL
  GI50: > 100 µM (inactive)
A549
  GI50: > 100 µM (inactive)
SF-268
  GI50: > 100 µM (inactive)
TK-10
  GI50: > 100 µM (inactive)
SW-620
  GI50: > 100 µM (inactive)
U-251
  GI50: > 100 µM (inactive)
CCRF-CEM
  GI50: > 100 µM (inactive)
UACC-62
  GI50: > 100 µM (inactive)
A498
  GI50: > 100 µM (inactive)
SNB-75
  GI50: 92.3 µM (inactive)
UO-31
  GI50: > 100 µM (inactive)
ACHN
  GI50: > 100 µM (inactive)
CAKI-1
  GI50: > 100 µM (inactive)
786-0
  GI50: > 100 µM (inactive)
DMS-114
  GI50: > 100 µM (inactive)
NCI-H522
  GI50: > 100 µM (inactive)
SK-MEL-2
  GI50: > 100 µM (inactive)
